PubChem BioAssay AID248 (DTP/NCI, 2004)
Toxic doses and inconclusive results are not listed. No stated cut-off is given here; in the data, active means T/C of 150% or more; inactive means T/C below 125%.

System: L1210 leukemia ip in BDF1 mice, survival T/C
Assay: NCI In Vivo Anticancer Drug Screen. Data for tumor model L1210 Leukemia (intraperitoneal) in B6D2F1 (BDF1) mice
Conditions: endpoint: mean survival time, higher = longer survival
Outline: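 Antitumor effect is assessed in tumor-bearing animals. Survival in the compound arm is compared with a vehicle-dosed control arm and expressed as their quotient.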

[1] = dose: 100.0 mg/kg/injection, schedule: Q04DX002 (ip), vehicle: saline with Tween-80
[2] = dose: 200.0 mg/kg/injection, schedule: Q04DX002 (ip), vehicle: saline with Tween-80
[3] = dose: 100.0 mg/kg/injection, schedule: Q01DX009 (ip), vehicle: Klucel (hydroxypropylcellulose) (HPC)
[4] = dose: 100.0 mg/kg/injection, schedule: Q04DX003 (ip), vehicle: Klucel (hydroxypropylcellulose) (HPC)
[5] = dose: 200.0 mg/kg/injection, schedule: Q01DX009 (ip), vehicle: Klucel (hydroxypropylcellulose) (HPC)
[6] = dose: 200.0 mg/kg/injection, schedule: Q04DX003 (ip), vehicle: Klucel (hydroxypropylcellulose) (HPC)
[7] = dose: 400.0 mg/kg/injection, schedule: Q01DX009 (ip), vehicle: Klucel (hydroxypropylcellulose) (HPC)
[8] = dose: 400.0 mg/kg/injection, schedule: Q04DX003 (ip), vehicle: Klucel (hydroxypropylcellulose) (HPC)
[9] = dose: 100.0 mg/kg/injection, schedule: Q01DX001 (ip), vehicle: saline
[10] = dose: 200.0 mg/kg/injection, schedule: Q01DX001 (ip), vehicle: saline
[11] = dose: 400.0 mg/kg/injection, schedule: Q01DX001 (ip), vehicle: saline
[12] = dose: 100.0 mg/kg/injection, schedule: Q01DX001 (ip), vehicle: Klucel (hydroxypropylcellulose) (HPC)
[13] = dose: 200.0 mg/kg/injection, schedule: Q01DX001 (ip), vehicle: Klucel (hydroxypropylcellulose) (HPC)
[14] = dose: 25.0 mg/kg/injection, schedule: Q01DX009 (ip), vehicle: saline with Tween-80
[15] = dose: 50.0 mg/kg/injection, schedule: Q01DX009 (ip), vehicle: saline with Tween-80
[16] = dose: 100.0 mg/kg/injection, schedule: Q04DX002 (ip), vehicle: saline
[17] = dose: 200.0 mg/kg/injection, schedule: Q04DX002 (ip), vehicle: saline
[18] = dose: 100.0 mg/kg/injection, schedule: Q04DX003 (ip), vehicle: saline
[19] = dose: 200.0 mg/kg/injection, schedule: Q04DX003 (ip), vehicle: saline
[20] = dose: 400.0 mg/kg/injection, schedule: Q04DX003 (ip), vehicle: saline
[21] = dose: 100.0 mg/kg/injection, schedule: Q01DX009 (ip), vehicle: saline
[22] = dose: 200.0 mg/kg/injection, schedule: Q01DX009 (ip), vehicle: saline
[23] = dose: 400.0 mg/kg/injection, schedule: Q01DX009 (ip), vehicle: saline
[24] = dose: 100.0 mg/kg/injection, schedule: Q04DX003 (ip), vehicle: saline with Tween-80
[25] = dose: 25.0 mg/kg/injection, schedule: Q04DX002 (ip), vehicle: saline with Tween-80
[26] = dose: 50.0 mg/kg/injection, schedule: Q04DX002 (ip), vehicle: saline with Tween-80

Measured: T/C

O=C(O)CS(=O)(=O)Cc1ccc(Cl)cc1
inactive: [1] 95 % of control | [2] 113 % of control | dose: 400.0 mg/kg/injection, schedule: Q04DX002 (ip), vehicle: saline with Tween-80 95 % of control

c1ccc(-c2ccc([Si](c3ccccc3)(c3ccccc3)c3ccccc3)cc2)cc1
inactive: [3] 102 % of control | [4] 105 % of control | [5] 96 % of control | [6] 94 % of control | [7] 93 % of control | [8] 96 % of control

Cc1c(O)c(Br)c(-c2c(C)c(Br)c(C)c([N+](=O)[O-])c2C)c(O)c1Br
inactive: dose: 75.0 mg/kg/injection, schedule: Q04DX003 (ip), vehicle: Klucel (hydroxypropylcellulose) (HPC) 103 % of control | dose: 150.0 mg/kg/injection, schedule: Q04DX003 (ip), vehicle: Klucel (hydroxypropylcellulose) (HPC) 93 % of control | dose: 300.0 mg/kg/injection, schedule: Q04DX003 (ip), vehicle: Klucel (hydroxypropylcellulose) (HPC) 88 % of control

NCC(=O)Nc1ccc(S(=O)(=O)c2ccc(NC(=O)CN)cc2)cc1
inactive: [9] 104 % of control | [10] 101 % of control | [11] 98 % of control

CCOC(=O)c1[nH]c(-c2ccccc2)c(C=O)c1-c1ccccc1
inactive: [12] 100 % of control | [13] 100 % of control | dose: 400.0 mg/kg/injection, schedule: Q01DX001 (ip), vehicle: Klucel (hydroxypropylcellulose) (HPC) 100 % of control

CC12CCC3C(CCC4CCCCC43C)C1CCC2CO (centres undefined)
inactive: dose: 100.0 mg/kg/injection, schedule: Q04DX002 (ip), vehicle: DMSO 101 % of control | dose: 200.0 mg/kg/injection, schedule: Q04DX002 (ip), vehicle: DMSO 99 % of control | dose: 400.0 mg/kg/injection, schedule: Q04DX002 (ip), vehicle: DMSO 89 % of control

C[CH2][Sn]([c]1ccccc1)([c]1ccccc1)[c]1ccccc1
inactive: dose: 12.5 mg/kg/injection, schedule: Q01DX009 (ip), vehicle: saline with Tween-80 97 % of control | [14] 99 % of control | [15] 99 % of control

Cn1c([N+](=O)[O-])cnc1/C=[N+](/C)[O-]
inactive: [16] 107 % of control | [17] 100 % of control | dose: 400.0 mg/kg/injection, schedule: Q04DX002 (ip), vehicle: saline 107 % of control

CN(C)c1ccc(/C=N/NC(=O)c2ccncc2)c(Cl)c1
inactive: [3] 96 % of control | [5] 89 % of control | [7] 91 % of control

CCC(C)N=C(N)C(N)=NC(C)CC (centres undefined)
inactive: [16] 103 % of control | [17] 103 % of control

CCOC(=O)c1ccc2ccccc2n1
inactive: dose: 75.0 mg/kg/injection, schedule: Q01DX001 (ip), vehicle: saline 109 % of control | dose: 150.0 mg/kg/injection, schedule: Q01DX001 (ip), vehicle: saline 96 % of control

S=c1nc(-c2ccccc2)c(-c2ccccc2)n[nH]1
inactive: [18] 100 % of control | [19] 98 % of control | [20] 98 % of control

CCOC(=O)CC1(C)NC(=O)NC1=O (centres undefined)
inactive: [21] 104 % of control | [22] 90 % of control | [23] 98 % of control

O=C(NCc1ccccc1)c1ccccc1
inactive: [4] 97 % of control | [6] 95 % of control | [8] 100 % of control

Cc1c(NCO)c(=O)n(-c2ccccc2)n1C
inactive: [18] 118 % of control | [19] 94 % of control | [20] 112 % of control

CCCCCCCCCCCCCCCCc1ccc(O)cc1O
inactive: dose: 12.5 mg/kg/injection, schedule: Q04DX003 (ip), vehicle: Klucel (hydroxypropylcellulose) (HPC) 103 % of control | [14] 100 % of control | dose: 25.0 mg/kg/injection, schedule: Q04DX003 (ip), vehicle: Klucel (hydroxypropylcellulose) (HPC) 95 % of control | [15] 105 % of control | dose: 50.0 mg/kg/injection, schedule: Q04DX003 (ip), vehicle: Klucel (hydroxypropylcellulose) (HPC) 95 % of control | dose: 100.0 mg/kg/injection, schedule: Q01DX009 (ip), vehicle: saline with Tween-80 95 % of control | [24] 94 % of control

CC(=O)OCC1OC(OCC2OC(Sc3ccccc3)C(OC(C)=O)C(OC(C)=O)C2OC(C)=O)C(OC(C)=O)C(OC(C)=O)C1OC(C)=O (centres undefined)
inactive: dose: 100.0 mg/kg/injection, schedule: Q04DX002 (ip), vehicle: Klucel (hydroxypropylcellulose) (HPC) 89 % of control | dose: 200.0 mg/kg/injection, schedule: Q04DX002 (ip), vehicle: Klucel (hydroxypropylcellulose) (HPC) 86 % of control | dose: 400.0 mg/kg/injection, schedule: Q04DX002 (ip), vehicle: Klucel (hydroxypropylcellulose) (HPC) 86 % of control

O=C(O)C1CC=CCC1C(=O)NC(O)C(Cl)(Cl)Cl (centres undefined)
inactive: [9] 96 % of control | [21] 103 % of control | dose: 100.0 mg/kg/injection, schedule: Q04DX003 (ip), vehicle: acetone 93 % of control | [10] 100 % of control | [22] 102 % of control | dose: 200.0 mg/kg/injection, schedule: Q04DX003 (ip), vehicle: acetone 98 % of control | [11] 95 % of control | [23] 100 % of control | dose: 400.0 mg/kg/injection, schedule: Q04DX003 (ip), vehicle: acetone 97 % of control

O=c1[nH][nH]c2c1cnc1ccccc12
inactive: dose: 50.0 mg/kg/injection, schedule: Q01DX009 (ip), vehicle: Klucel (hydroxypropylcellulose) (HPC) 97 % of control | [3] 101 % of control | [5] 94 % of control

Cc1cc(C)c(F)c(-c2c(N)c(C)cc(C)c2F)c1N
inactive: dose: 50.0 mg/kg/injection, schedule: Q01DX001 (ip), vehicle: Klucel (hydroxypropylcellulose) (HPC) 106 % of control | [12] 101 % of control | [13] 96 % of control

O=C(O)CCC(=O)Nc1ccccc1CC(c1c[nH]c2ccccc12)c1c[nH]c2ccccc12
inactive: dose: 50.0 mg/kg/injection, schedule: Q01DX001 (ip), vehicle: saline 106 % of control | [9] 104 % of control | [10] 106 % of control | [11] 104 % of control

NC(=O)CCNCCSC(=O)c1ccccc1
inactive: [24] 102 % of control | dose: 200.0 mg/kg/injection, schedule: Q04DX003 (ip), vehicle: saline with Tween-80 100 % of control | dose: 400.0 mg/kg/injection, schedule: Q04DX003 (ip), vehicle: saline with Tween-80 96 % of control

CCCCOCCOP(=O)(OCCOCCCC)OCCOCCCC
inactive: [4] 98 % of control | [6] 98 % of control | [8] 101 % of control

Cn1c(=O)cc(C=Nc2ccc(S(N)(=O)=O)cc2)c2ccccc21
inactive: [9] 102 % of control | [10] 100 % of control | [11] 98 % of control

COc1ccc(NC(=O)Nc2ccc(Cl)cc2OC)cc1
inactive: [25] 93 % of control | [26] 96 % of control | [1] 89 % of control

COc1ccc2nc(C)c(COC(C)=O)c(Cl)c2c1
inactive: [21] 102 % of control | [18] 100 % of control | [22] 92 % of control | [19] 96 % of control | [23] 97 % of control | [20] 112 % of control

COc1cc(NC(=O)Nc2cccc(Cl)c2)c(OC)cc1Cl
inactive: [25] 99 % of control | [26] 99 % of control | [1] 96 % of control

NC(=O)c1cc(Cl)ccn1
inactive: [1] 101 % of control | [2] 99 % of control

COc1ccc(/C=N/N=C(N)N)cc1
inactive: dose: 15.0 mg/kg/injection, schedule: Q01DX Z (ip), vehicle: saline 103 % of control | dose: 30.0 mg/kg/injection, schedule: Q01DX Z (ip), vehicle: saline 100 % of control | dose: 30.0 mg/kg/injection, schedule: Q01DX Z (oral), vehicle: other 93 % of control | dose: 60.0 mg/kg/injection, schedule: Q01DX Z (ip), vehicle: saline 95 % of control | dose: 60.0 mg/kg/injection, schedule: Q01DX Z (oral), vehicle: other 100 % of control | dose: 120.0 mg/kg/injection, schedule: Q01DX Z (oral), vehicle: other 98 % of control
